The results in this text go back to ChEMBL document CHEMBL1926510, “Naphthoquinone-like polyketide isolated from Streptomyces sp. RI-77 and its predicted biosynthetic pathway” (J Nat Prod, 2011).

A word on the IC50: it is the concentration at which inhibition is half-maximal.

Experiment [1] in a line: Antioxidant activity assessed as DPPH radicle scavenging activity after 30 mins by spectrometric analysis. It counts as functional. On the technique in general: Loss of DPPH colour is used to gauge radical scavenging.
The next experiment relates to Micrococcus luteus. The experiment can be described thus: Antibacterial activity Micrococcus luteus. It counts as functional, organism-based.
The next experiment concerns Escherichia coli. Nature of the experiment: Antibacterial activity Escherichia coli. The format is functional, organism-based.

Calls of active or inactive are those of the source. No cut-off for these calls is given here.

For the compound `Cc1c(C)c2c(c(C)c1O)CC[C@@](C)(CCC[C@H](C)CCC[C@H](C)CCCC(C)C)O2` [ALPHA-TOCOPHEROL], in experiment [1], the IC50 was determined as 28 µM.

For the compound `COc1cc(O)c2c(c1O)C(=O)[C@@]13C[C@H]4[C@@H](C[C@H]1C(C)=O)OC(=O)[C@@]4(OC)C(O)=C3C2=O`, the result with Micrococcus luteus and with Escherichia coli was inactive. Besides, in experiment [1], the IC50 was determined as 165 µM.
